Experimental data reported in patent publication EP4620480A1, “IMPLANTATION FACILITATOR, AND SCREENING SYSTEM THEREFOR” (Kansai Medical University Educational Corporation, priority 2022, dated 2025).
Peptide text beside a SMILES is read from it. * marks the point of attachment. Myristoyl = CCCCCCCCCCCCCC(=O)*

How the values were obtained:
B6D2F 1 mouse embryos = test: Embryo development after transfer with peptide-supplemented medium (Example 7); assay type: in vivo; conditions: blastocysts in KSOM medium with 32 µM Iznm-2, transferred to pseudopregnant ICR mice, examined at E14
Method: In order to examine the effect of the peptide medicament on embryo development, the following experiment was performed. ICR male mice at 8 weeks of age were vasectomized. ICR female mice in proestrus were mated with the vasectomized male mice, and the female mice having developed a copulation plug on the following day were used as pseudopregnant female mice. Two days after confirming the presence of the copulation plug, B6D2F 1 mouse embryos that had developed into blastocysts were transferred to the female mice. The blastocysts were added to KSOM medium supplemented with 32 µM Iznm-2 immediately before the transfer, and the embryos were transferred together with the medium. The amount of the medium injected into the uterus at the time of transfer was 5 µl or less. The embryo transfer was performed in the following manner. The pseudopregnant female mice were anesthetized, and the skin on one side in the dorsum and the abdominal wall of each mouse were incised to expose the uterus to the outside of the body. The uterus was pierced through with a 26-G needle, and the embryos were injected into the thus-formed hole together with the medium using a glass tube. After the transfer, the uterus was returned to the body, and the incision was sutured. The transferred embryos were allowed to develop in the recipient mice until E14. […]

[1] = Blood tests on maternal bodies after intraperitoneal administration; assay type: in vivo; conditions: female mice, 8 µM with respect to total weight, in corn oil, blood 24 hours after administration
Method: An excess amount of Iznm-2 was administered intraperitoneally to female mice to examine the side effects of the peptide medicament. In Example 8, […] Iznm-2 was administered together with 5 µl or less of the embryos to the uterus of each mouse. In the present experiment, Iznm-2 was administered in such a manner that the concentration thereof would be 8 µM with respect to the total weight of each mouse. Iznm-2 was dissolved in corn oil. As a control, corn oil without the peptide medicament was administered. Blood samples were collected 24 hours after the administration, and blood components serving as indicators of the condition of the liver and kidney were analyzed.

In the case of `CCCCCCCCCCCCCC(=O)N[C@@H](CCCCN)C(=O)N[C@@H](Cc1ccccc1)C(=O)N[C@@H](CCC(=O)O)C(=O)N[C@@H](CCC(=O)O)C(=O)N[C@@H](CCC(=O)O)C(=O)N[C@@H](CCCNC(=N)N)C(=O)N[C@@H](CO)C(=O)N[C@@H](CCCNC(=N)N)C(=O)N[C@@H](CS)C(=O)N[C@@H](CCCCN)C(=O)N[C@@H](Cc1c[nH]c2ccccc12)C(=O)N[C@@H](CCSC)C(=O)N[C@H](C(=O)O)[C@@H](C)O` [Iznm-2, Myr-KFEEERSRCKWMT] (Myristoyl-KFEEERSRCKWMT-OH), the “development of transferred embryos” value (B6D2F 1 mouse embryos) was “developed normally”, the CRE ([1]; Kidney) was 0.12 mg/dL and the LAP ([1]; Liver & Kidney) was 26 IU/L. For the same compound, the TP ([1]; Liver & Kidney) was 5.1 g/dL, the A/G ([1]; Liver) was 1.85 and the ALB ([1]; Liver) was 3.3 g/dL. The ALP ([1]; Liver) was 463 IU/L, the ALT ([1]; Liver) was 38 IU/L and the ChE ([1]; Liver) was 32.5 IU/L. For the same compound, the D-BIL ([1]; Liver) was 0.02 mg/dL, the I-BIL ([1]; Liver) was 0.02 mg/dL and the T-BIL ([1]; Liver) was 0.08 mg/dL. It also gave a γ-GT ([1]; Liver) of 3 IU/L.
